Source: ChEMBL document CHEMBL3988442, “University of Dundee, Small-Polar-MMV Screening Library” (2021)

Experiments:
[1] = microbe, parasite or virus in culture; details: Mycobacterium tuberculosis, 96 h, read-out: pIC50 (converted)
[2] = microbe, parasite or virus in culture; details: Mycobacterium tuberculosis, 72 h, read-out: pIC50 (converted)

SMILES	IC50 [1]	IC50 [2]
c1cncc(CN2CCCC(c3nnc(-c4cnccn4)o3)C2)c1 (stereo not drawn)	> 50.1 µM	> 50.1 µM
O=C(CC1C=CCC1)N1CCN(c2ccccn2)CC1 (stereo not drawn)	407 µM	167 µM
CC(C)C(C)N(C)Cc1nnc(-c2ccco2)o1 (stereo not drawn)	> 50.1 µM	1.38 µM
COCC(=O)NCCc1cc(Cl)c2c(c1)OCCO2	176 µM	216 µM
Cc1nc[nH]c1CN1CCCC12CCN(c1nc3ccccc3s1)CC2	> 50.1 µM	46 µM
Cc1cc(NC(=O)Cc2ccc3c(c2)OCCO3)no1	> 501 µM	271 µM
CC(NCc1cccc2c1OCCO2)c1ccncc1 (stereo not drawn)	153 µM	99.1 µM
O=c1c(Cc2ccccc2)c(O)ccn1Cc1cccs1	> 50.1 µM	> 50.1 µM
CCN1C(=O)[C@H]2CN(CC(C)C)C[C@H]2C12CCN(S(C)(=O)=O)CC2	> 50.1 µM	> 50.1 µM
Cc1cccc(-c2nnc(C(C)N3CCn4c(C)nnc4C3)o2)c1 (stereo not drawn)	> 50.1 µM	> 50.1 µM
CC(C)c1cccc(S(=O)(=O)N2CCCC2CN)c1 (stereo not drawn)	> 501 µM	399 µM
Cc1ccccc1OCCCNC(=O)NC[C@@H](C)O	> 501 µM	> 501 µM
CC(C)c1cc(C(=O)NCCCN(C)C)nc(N2CCCC2)n1	31.2 µM	30 µM
COCCC(=O)NCC(C)c1ccc(F)c(F)c1 (stereo not drawn)	> 501 µM	> 501 µM
CNc1cc(CN(C)Cc2ccccc2)ccn1	430 µM	227 µM
CCn1nnc(NCc2ccc(-c3ccc(Br)cc3)o2)n1	14.1 µM	44.3 µM
CNC(=O)c1cccc(NCc2ccc(C#N)s2)n1	205 µM	180 µM
CCOc1ccc(OCc2nccc(-c3cc(C(=O)O)ccn3)n2)cc1	> 50.1 µM	> 50.1 µM
NC(=O)c1cnc(NC2CCc3ccccc32)c(Cl)c1 (stereo not drawn)	196 µM	199 µM
CCS(=O)(=O)N1CCC(c2nnc(CN3CCCCCC3)n2C)CC1	> 50.1 µM	> 50.1 µM
COC(=O)N1CCC(Nc2nnc(C(F)(F)F)s2)CC1	230 µM	160 µM
Cc1ccc(N2CCN(C)c3ncccc3C2)nn1	> 50.1 µM	> 50.1 µM
N#Cc1cc(F)c(NCCc2ccc(F)cc2)c(F)c1	22.5 µM	> 50.1 µM
NCCc1cnn(-c2ccccc2)c1	250 µM	230 µM
Cc1cc2c(cc1CNC(Cc1cccs1)c1nccs1)OCO2 (stereo not drawn)	> 50.1 µM	24.4 µM
CNc1nc(C)cc(NCc2cc(C)cc3c(C)c(C)[nH]c23)n1	44.8 µM	28 µM

SMILES	IC50 [1]	IC50 [2]
CCCc1nc(C(=O)N2CC(c3ccncc3)C2)cs1	356 µM	326 µM
CN1CCc2nc(NC(=O)CC(C)(C)C)sc2C1	127 µM	210 µM
COCc1nn(Cc2cccc3cccnc23)c(=O)o1	51.6 µM	16.8 µM
CC(C)(C)c1n[nH]cc1CNCC1CCN(C2CC2)C1 (stereo not drawn)	27.6 µM	28.5 µM
CC(=O)c1ccc(NCC(=O)NC(C)C(C)C)cc1 (stereo not drawn)	182 µM	182 µM
NCCCc1cccc(F)c1	> 501 µM	74 µM
CC(c1nc(COc2ccc(F)cc2)no1)S(C)(=O)=O (stereo not drawn)	157 µM	230 µM
NS(=O)(=O)c1ccc(NC(=O)Cn2ccnc2)cc1	> 501 µM	> 501 µM
CN(C)c1ccc(C(=O)N2CCCC2c2ccc(Cl)cc2)nn1 (stereo not drawn)	> 50.1 µM	> 50.1 µM
N#Cc1cccc(N2CCCC(CO)(Cc3ccccc3F)C2)n1 (stereo not drawn)	> 50.1 µM	12.6 µM
CCOc1cc(NCc2ncc(C)o2)ncn1	> 501 µM	153 µM
COc1ccc2c(c1)NCC(C)O2 (stereo not drawn)	214 µM	94.8 µM
COc1ccc(OCCSCC(=O)NCCC#N)cc1	288 µM	195 µM
O=C(COC(=O)c1ccccn1)Nc1ccccc1	> 501 µM	234 µM
CN(C)CCNC(=O)c1ccc(Cl)cc1	> 501 µM	> 501 µM
CN(C)C(=O)CSCC(=O)NCc1ccc(Cl)cc1	> 501 µM	86.8 µM
O=C(c1cccc(F)c1)N1CCN(c2nccs2)CC1	> 501 µM	228 µM
O=C(c1cc(-c2ccn(CC3CC3)n2)n2ccccc12)N1CCCO1	1.05 µM	3.54 µM
CCc1ccc(CN2CCN(C(=O)N(C)C)CC2)o1	> 501 µM	206 µM
COCC(=O)NC(C)Cc1cccc(Cl)c1 (stereo not drawn)	18.5 µM	11.2 µM
COC(=O)[C@H](C)NC(=O)c1noc2c1CCCCC2	> 501 µM	238 µM
O=C(Nc1nc(-c2ccsc2)ns1)C1CCCN1 (stereo not drawn)	> 501 µM	> 501 µM
NC(=O)C1(c2cnccn2)CCCN1C(=O)Cc1ccsc1 (stereo not drawn)	> 50.1 µM	> 50.1 µM
CSc1cc(NC(=O)NCCc2ccccn2)ccn1	438 µM	411 µM
NS(=O)(=O)NCCCc1ccc(Br)cc1F	218 µM	151 µM
Cc1ccc(C(=O)NCCCN(C)S(C)(=O)=O)cc1-n1cccc1	> 50.1 µM	30.9 µM

SMILES	IC50 [1]	IC50 [2]
CC(C)CCn1ccc(NC(=O)C2(O)CCC2)n1	331 µM	308 µM
CCC(=O)Nc1nnc2n(Cc3cccc(OC)c3)[nH]c(C)c1-2	> 50.1 µM	> 50.1 µM
CCO[C@H]1CN(c2nc(-c3ccccc3)no2)C[C@@H]1O	> 501 µM	262 µM
CCCN1CCC(Nc2cc(-c3ccccc3)ccc2OC)CC1	32.9 µM	23.4 µM
NCCc1ccc(N2CCOCC2)c(F)c1	263 µM	154 µM
CCc1ccc(C(=O)NC(C)c2cccnc2)o1 (stereo not drawn)	> 501 µM	> 501 µM
Cc1cc(C(=O)N2CCC(C(N)=O)C2)cc(Cl)c1Br (stereo not drawn)	262 µM	180 µM
C[C@H](c1ccc(Cl)cc1)n1c(CCN)n[nH]c1=O	> 501 µM	38.3 µM
COc1ccc(C(N)c2ccc(OC)cc2OC)cc1 (stereo not drawn)	291 µM	186 µM
O=C(NCCN1CCCC1)c1ccc2ccccc2n1	249 µM	146 µM
CN(Cc1nc2ccccc2o1)C1CCCN(c2cccnn2)C1 (stereo not drawn)	> 50.1 µM	> 50.1 µM
CN(C)C(=O)CCOC(=O)c1cccc(Cl)c1	> 501 µM	227 µM
CC(C)Cc1cc(C(=O)NCC(O)C(F)(F)F)[nH]n1 (stereo not drawn)	160 µM	183 µM
Cc1nc(CNCC2COCc3c(-c4ccoc4)nnn3C2)cs1 (stereo not drawn)	> 50.1 µM	> 50.1 µM
COc1ccc(CNc2ncc(-c3cc(C)no3)c(C(C)C)n2)cc1	> 50.1 µM	> 50.1 µM
COc1ccc(NC(=O)CNc2ccc(Br)cc2F)cc1	> 50.1 µM	> 50.1 µM
CC(C)(C)c1nc(CN2CCC(c3ccnn3CCO)CC2)no1	> 50.1 µM	> 50.1 µM
Cc1ccc(C(N)CN2CCOCC2)cc1 (stereo not drawn)	> 501 µM	448 µM
O=C(CNc1cccc(CO)c1)NCc1ccc(Cl)s1	> 501 µM	134 µM
CNC(=O)NC(=O)CCN1CCc2ccccc2C1	201 µM	196 µM
CNCC(=O)Nc1cc(Cl)c(OCCOC)c(Cl)c1	> 501 µM	> 501 µM
NC(=O)c1cc(S(=O)(=O)NCCc2ccccc2)cs1	> 501 µM	247 µM
CCc1nc(CN2CCCN(c3cnc4ccccc4n3)CC2)no1	26.5 µM	> 50.1 µM
N#Cc1ccccc1CN1CCCC1CO (stereo not drawn)	176 µM	129 µM
CC(Nc1ccc(Br)cc1)c1nc(C2CC2)no1 (stereo not drawn)	0.994 µM	2.01 µM
COCC(=O)N1CCCN(Cc2cc(C(C)C)no2)CC1	> 50.1 µM	> 50.1 µM

SMILES	IC50 [1]	IC50 [2]
O=C(NCC(O)c1ccc(Cl)cc1)Nc1ccccn1 (stereo not drawn)	> 501 µM	106 µM
CCC1c2ccsc2CCN1CC(=O)NC (stereo not drawn)	> 501 µM	> 501 µM
CC(=O)Nc1ccc(N2C(=O)C=CC2=O)cc1	> 501 µM	181 µM
CCNC(=O)c1ccn(-c2ccccc2)n1	232 µM	340 µM
CCCNc1nc(CS(=O)(=O)c2ccccc2)cs1	> 50.1 µM	> 50.1 µM
COc1cc(C(=O)CCN(C)C)cc(OC)c1OC	338 µM	196 µM
CCCc1nnc(NC2CCN(C(=O)OCC)CC2)o1	72 µM	180 µM
CCCN(C)S(=O)(=O)NC(C)c1ccc(OC)c(F)c1 (stereo not drawn)	163 µM	153 µM
Cc1ccccc1-n1nnnc1SCC(=O)NC1CC1	> 501 µM	199 µM
CCc1nc(CNc2ccc(C#N)nc2)cs1	96.8 µM	113 µM
Brc1cccc2c1CNCCO2	> 501 µM	213 µM
COc1ccc(C2SCC(=O)N2c2ncc(C)s2)cc1 (stereo not drawn)	30.1 µM	5.8 µM
N#CC1(NC(=O)CCc2ccc(Cl)s2)CCOCC1	> 501 µM	236 µM
CC(C)NC(=O)NC(C)c1ccccc1 (stereo not drawn)	> 501 µM	> 501 µM
CN(C)c1ncnc2c1CCN(C(=O)CN1CCCCC1)C2	> 50.1 µM	> 50.1 µM
NC(=O)C1CCCN(CCc2ccccc2)C1 (stereo not drawn)	> 501 µM	> 501 µM
CCNC1=NN=C(c2ccc3c(c2)OCCCO3)CS1	> 501 µM	274 µM
O=C(c1cc(C2CC2)on1)N1CCC(Oc2ncccc2Br)CC1	24.2 µM	> 50.1 µM
Cc1ccc(CN2CC[C@H](c3nnc(COc4ccc(F)cc4)o3)C2)o1	37.2 µM	> 50.1 µM
Cc1cc2[nH]c(O)nc2cc1NCc1ccc(F)cc1	> 50.1 µM	24.3 µM
CN(C)c1cc(CN)c2ccccc2n1	132 µM	97.3 µM
NC(=O)C(NC(=O)c1sccc1Br)c1ccccc1 (stereo not drawn)	> 501 µM	> 501 µM
CSCCC(CO)NC(=O)c1occc1C(C)C (stereo not drawn)	> 501 µM	258 µM
CCOC(=O)CCC(=O)c1ccc2c(c1)OCCO2	199 µM	209 µM
CCCNc1cc(-n2cccn2)ncn1	280 µM	58.4 µM
CCOc1ncccc1CNC(=O)c1[nH]ncc1Br	> 501 µM	> 501 µM
